From PubChem BioAssay (NCI) come the findings set out here.

Test systems include MCF7 breast; CCRF-CEM leukemia; ACHN renal; CAKI-1 renal; BT-549 breast; A498 renal; TK-10 renal; MDA-MB-435; LOX IMVI melanoma; EKVX NSCLC.
What all share (assay): DTP human tumour cell line panel, 48 h

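Values below derive from 48-hour exposures of cells grown in 96-well plates, with endpoints linearly interpolated between the two concentrations bracketing the appropriate inhibition level. GI50 = concentration required for 50% inhibition of growth. TGI is the concentration that stops growth completely.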

The term GI50 denotes the concentration at which growth is held to half of that of the control. As usually defined, the TGI is the concentration at which net growth stops. Read a high TGI as lower sensitivity of the cells. On to `O=C(Nc1ccc(Cl)cc1F)c1cc(Br)ccc1O`, for which the GI50 with MCF7 breast was 1.26 µM; in the experiment on CCRF-CEM leukemia it was 2.37 µM; in the experiment on ACHN renal, 1.12 µM; in the experiment with CAKI-1 renal it was 0.505 µM; in the experiment on BT-549 breast, 0.685 µM; with A498 renal it was 0.23 µM. Moreover, the GI50 in the experiment with TK-10 renal is 4.15 µM; in the experiment with MDA-MB-435 it was 0.941 µM; in the experiment on LOX IMVI melanoma, 0.769 µM; in the experiment with EKVX NSCLC it was 1.46 µM. The TGI with MCF7 breast is above 100 µM; with CCRF-CEM leukemia, above 27.6 µM; in the experiment on ACHN renal it was 16.7 µM; in the experiment with CAKI-1 renal, 4.19 µM; in the experiment with BT-549 breast, 3.01 µM; in the experiment with A498 renal, 0.709 µM. The TGI was above 53.1 µM with TK-10 renal, 8.44 µM in the experiment with MDA-MB-435, 4.92 µM in the experiment with LOX IMVI melanoma and above 26.1 µM in the experiment with EKVX NSCLC.
For the molecule `OCCCCC#Cc1ccccc1C#Cc1cccc(O)c1`, the GI50 in the experiment on MCF7 breast is 35.7 µM; in the experiment on CCRF-CEM leukemia, 18.8 µM; with ACHN renal, 19.1 µM; in the experiment with CAKI-1 renal, 16.2 µM; in the experiment on BT-549 breast, 16 µM; with A498 renal it was 18.5 µM. The GI50 is 19.2 µM in the experiment on TK-10 renal, 16.1 µM with MDA-MB-435, 16.7 µM with LOX IMVI melanoma and 23.5 µM in the experiment with EKVX NSCLC. The total growth inhibition concentration (TGI) in the experiment with MCF7 breast was above 100 µM; in the experiment with CCRF-CEM leukemia, 48.6 µM; in the experiment on ACHN renal, 41.6 µM; in the experiment on CAKI-1 renal it was 33.6 µM; in the experiment on BT-549 breast, 42.1 µM; in the experiment with A498 renal it was 39.4 µM. Also, the TGI in the experiment on TK-10 renal was determined as 38.2 µM; in the experiment on MDA-MB-435, 32.8 µM; with LOX IMVI melanoma, 30.9 µM; in the experiment with EKVX NSCLC, 57 µM.
In the case of `COc1cc2cn3c4ccc(O)cc4[nH]c(=O)c3c2cc1OC`, the GI50 in the experiment on MCF7 breast was 0.0341 µM; in the experiment with CCRF-CEM leukemia, 0.0224 µM; in the experiment with ACHN renal it was 0.0361 µM; in the experiment on CAKI-1 renal, 0.0158 µM; with BT-549 breast, 0.435 µM; in the experiment with A498 renal it was 0.02 µM. Also, the GI50 is 0.0453 µM with TK-10 renal, below 0.01 µM in the experiment with MDA-MB-435, 0.0131 µM with LOX IMVI melanoma and 0.0607 µM in the experiment on EKVX NSCLC. For the same molecule, the TGI in the experiment with MCF7 breast was 1.62 µM; with ACHN renal, 1.61 µM; in the experiment on CAKI-1 renal it was 1.3 µM; in the experiment on BT-549 breast it was 2.26 µM; with A498 renal it was 10.8 µM; in the experiment with TK-10 renal, 1.97 µM. Further, the TGI is 0.0192 µM in the experiment with MDA-MB-435, 1.44 µM in the experiment on LOX IMVI melanoma and 2 µM with EKVX NSCLC.
As for `Cc1[nH]n(-c2cccc(Cl)c2)c(=O)c1/C=C1\C=Nc2ccc(Br)cc21`, the GI50 with MCF7 breast was 5.95 µM; with CCRF-CEM leukemia, 2.95 µM; in the experiment on ACHN renal, 2.46 µM; in the experiment on CAKI-1 renal, 2.43 µM; in the experiment on BT-549 breast it was 7.89 µM; in the experiment on A498 renal, 2.08 µM. The GI50 is 2.6 µM in the experiment on TK-10 renal, 6.78 µM in the experiment on MDA-MB-435, 5.48 µM in the experiment on LOX IMVI melanoma and 5.45 µM with EKVX NSCLC. For the same molecule, the TGI with MCF7 breast was above 100 µM; in the experiment with CCRF-CEM leukemia, 9.84 µM; with ACHN renal, 5.9 µM; in the experiment on CAKI-1 renal it was 13.5 µM; in the experiment on BT-549 breast, 30 µM; with A498 renal it was 5.18 µM. The TGI in the experiment on TK-10 renal was 5.18 µM; in the experiment with MDA-MB-435, above 100 µM; in the experiment on LOX IMVI melanoma, 38 µM; in the experiment on EKVX NSCLC, 73.3 µM.
For `CC(=O)O[C@@H]1C[C@]2(C(C)C)O[C@@]1(C)[C@@H]1CCC(C)=C1[C@@H]2OC(=O)/C=C/c1ccccc1`, the GI50 was 19.5 µM with MCF7 breast; 31.3 µM with CCRF-CEM leukemia; 4.49 µM in the experiment with ACHN renal; 13 µM in the experiment with CAKI-1 renal; 51.3 µM with BT-549 breast; 2.19 µM in the experiment on A498 renal. The GI50 in the experiment with TK-10 renal was 93.2 µM; with MDA-MB-435, 39.1 µM; in the experiment with LOX IMVI melanoma, 29.4 µM; in the experiment on EKVX NSCLC it was 20 µM. Moreover, the TGI with MCF7 breast is above 100 µM; in the experiment with CCRF-CEM leukemia, above 100 µM; with ACHN renal, above 100 µM; in the experiment with CAKI-1 renal, above 100 µM; in the experiment on BT-549 breast, above 100 µM; in the experiment on A498 renal, 6.59 µM. Also, the TGI in the experiment on TK-10 renal, with MDA-MB-435, with LOX IMVI melanoma and with EKVX NSCLC was above 100 µM throughout.
As for `NC(=O)C(=CNc1nc(-c2ccc(Cl)c(Cl)c2)cs1)C(N)=O`, the GI50 is 80 µM in the experiment on MCF7 breast; 20.4 µM in the experiment on CCRF-CEM leukemia; above 100 µM with ACHN renal; 25.3 µM with CAKI-1 renal; above 100 µM with BT-549 breast; above 100 µM in the experiment on A498 renal. For the same molecule, the GI50 in the experiment on TK-10 renal was above 100 µM; with MDA-MB-435 it was 48.2 µM; with LOX IMVI melanoma it was above 100 µM; with EKVX NSCLC it was 43.8 µM. The TGI in the experiment with MCF7 breast, with CCRF-CEM leukemia, in the experiment with ACHN renal, with CAKI-1 renal, with BT-549 breast and in the experiment on A498 renal was above 100 µM in each case. For the same molecule, the TGI with TK-10 renal, in the experiment on MDA-MB-435, in the experiment on LOX IMVI melanoma and in the experiment with EKVX NSCLC was above 100 µM in each case.
With `COc1ccc(CNc2c3ccccc3nc3ccccc23)cc1OC`, the GI50 in the experiment on MCF7 breast is 2.24 µM; in the experiment on CCRF-CEM leukemia, 2.82 µM; in the experiment on ACHN renal it was 1.39 µM; with CAKI-1 renal it was 1.87 µM; in the experiment with BT-549 breast it was 3.15 µM; with A498 renal it was 1.97 µM. Moreover, the GI50 in the experiment on TK-10 renal was 2.34 µM; in the experiment with MDA-MB-435 it was 2.93 µM; in the experiment with LOX IMVI melanoma, 1.4 µM; in the experiment on EKVX NSCLC it was 2.7 µM. Further, the TGI is 6.66 µM in the experiment on MCF7 breast; 19.2 µM in the experiment on CCRF-CEM leukemia; 7.94 µM in the experiment on ACHN renal; 6.33 µM with CAKI-1 renal; 12.2 µM in the experiment on BT-549 breast; 4.8 µM with A498 renal. In addition, the TGI was determined as 8.44 µM in the experiment on TK-10 renal, 10 µM in the experiment on MDA-MB-435, 3.47 µM with LOX IMVI melanoma and 12.4 µM with EKVX NSCLC.
